Here are results for four compounds from ChEMBL document CHEMBL3526115, “Differences in the pharmacokinetics of 4-amino-3-chlorophenyl hydrogen sulfate, a metabolite of resatorvid, in rats and dogs” (Drug Metab Dispos, 2012).

Series [1] is described as follows: Half life in rat plasma at 5 mg/kg. The format is ADME, organism-based. On the set-up: dose 5 mg/kg.
A short description of series [2]: Half life in human plasma at 5 mg/kg. The series is classed as ADME, organism-based. The arrangement: dose 5 mg/kg.
A short description of series [3]: Half life in dog plasma at 5 mg/kg. The series is classed as ADME, organism-based, Canis lupus familiaris. The arrangement: dose 5 mg/kg.
Series [4] in a line: Dissociation constant, pKa of the compound. The series is classed as physicochemical.
Series [5] can be described thus: Elimination half life in iv dosed dog plasma. The following applies: read-out: beta t1/2 (converted). The format is ADME, organism-based, Canis lupus familiaris.
A short description of series [6]: Elimination half life in iv dosed rat plasma. The format is ADME, organism-based. The following applies: read-out: beta t1/2 (converted).

The structures appear in SMILES notation.

For the compound `Cc1cc(Cl)ccc1OCC(=O)O` [METAXON], the half-life in series [1] was 6 h; in series [2], 11 h; in series [3] it was 63 h.

What is called pKa is the negative logarithm of the acid dissociation constant. Lower therefore signals a stronger acid or weaker base. Compound `Nc1ccc(OS(=O)(=O)O)cc1Cl` gave a pKa in series [4] of 2.4.

With `O=C(O)COc1ccc(Cl)cc1Cl` [2,4-DICHLOROPHENOXYACETIC ACID], the half-life in series [1] is less than 1 h; in series [2], 12 h; in series [3], 92 h.

Turning to `CCOC(=O)C1=CCCC[C@H]1S(=O)(=O)N[14c]1[14cH][14cH][14c](F)[14cH][14c]1Cl`, the half-life is 158 h in series [5] and 5.6 h in series [6].
